# Test results taken from patent publication US20250312497A1, “METHOD OF TREATING PROSTATE CANCER” (Novartis AG, priority 2022, published 2025).
# “And” between values parts separate entries of the source, which are not always exact repeats. Identical values can stand only once. Like-named read-outs stand apart in the source and are kept apart here.
# How the values were obtained:
# [1] = tested on: docetaxel progressing metastatic castration-resistant prostate cancer; details: randomized, 200 patients; P<0.0001; cited from earlier work
# [2] = tested on: castrate-resistant metastatic prostate cancer; details: cited from earlier work
# [3] = tested on: PSMA-positive metastatic castration-resistant prostate cancer (mCRPC); assay: PSMAfore phase III: radiographic progression-free survival (rPFS) by blinded independent central review per PCWG3; format: in vivo, human
# [4] = tested on: PSMA-positive mCRPC participants; assay: PSMAfore phase III: patient disposition, treatment discontinuation; format: in vivo, human
# Text: Patient disposition (Full analysis set)
# [5] = tested on: PSMA-positive metastatic castration-resistant prostate cancer; details: cited from earlier work
# [6] = tested on: PSMA-positive metastatic castration-resistant prostate cancer (mCRPC); assay: PSMAfore phase III: radiographic progression-free survival (rPFS) by blinded independent central review per PCWG3; format: in vivo, human; remark: listed apart in the source
# Description: Radiographic progression-free survival (rPFS) based on independent central review as per PCWG3 criteria is the primary endpoint and overall survival (OS) is the key secondary endpoint for the study. The statistical design of the study is such that, to be declared positive, the study would be required to reach statistical significance on the primary analysis of rPFS.
# The primary analysis of rPFS and the first interim analysis of OS were performed using all patients randomized on or before the data cutoff date of 2 Oct. 2022 using a one-sided alpha level of 2.5%. One randomized and treated patient was excluded from Full Analysis Set due to informed consent not obtained per due process (INCL1A PD).
# [7] = DCO 21 Jun 2023, full analysis set
# [8] = DCO 2 Oct 2022, full analysis set
# [9] = primary analysis DCO 2 Oct 2022, most recent central vendor data (results update)
structure (smiles),measurement,setting,value
"O=C([O-])CN1CCN(CC(=O)[O-])CCN(CC(=O)NCC2CCC(C(=O)N[C@@H](Cc3ccc4ccccc4c3)C(=O)NCCCC[C@H](NC(=O)N[C@@H](CCC(=O)O)C(=O)O)C(=O)O)CC2)CCN(CC(=O)[O-])CC1.[177Lu+3] (some centres unmarked) [[177Lu]Lu-PSMA-617, lutetium (177Lu) vipivotide tetraxetan]",proportion of patients with PSA decline >=50%,[1],66%
same,participants with PSA decline >50%,"[2]; 10 participants, 5.6 GBq/150 mCi",50%
same,participants with PSA decline >50%,[2]; after 2 cycles of 6 GBq/160 mCi,60%
same,rPFS events: Death without radiographic progression,[3]; [7],10 (4.3) n(%)
same,rPFS events: Radiographic progression,[3]; [7],105 (44.9) n(%)
same,rPFS: Number of events,[3]; [7],115 (49.1%) n(%) and 115 (49.1) n(%)
same,risk reduction (rPFS) compared to ARDT arm,[3]; updated exploratory analysis DCO 21 Jun 2023,57%
same,treatment discontinuation due to adverse event,[4]; DCO 2 Oct 2022,3.9%
same,Reason for discontinuation: Adverse event,[4]; [8],9 (3.9) n (%)
same,treatment discontinuation due to adverse event,[4]; DCO 21 Jun 2023,5.6%
same,complete response,"[5]; RECIST 1.1 measurable target lesions, 17 of 184 patients",9.2%
same,partial response,"[5]; RECIST 1.1 measurable target lesions, 77 patients",41.8%
same,median imaging-based progression-free survival,"[5]; plus standard care, vs 3.4 months standard care",8.7 months
same,median overall survival,"[5]; plus standard care, vs 11.3 months standard care",15.3 months
same,hazard ratio for death,"[5]; vs standard care, 95% CI 0.52 to 0.74",0.62
same,hazard ratio for progression or death,"[5]; vs standard care, 99.2% CI 0.29 to 0.57",0.40
same,rPFS events: Death without radiographic progression,[6]; [8],6 (2.6) n(%)
same,rPFS events: Radiographic progression,[6]; [8],55 (23.6) n(%)
same,rPFS: Number of events,[6]; [8],61 (26.2%) n(%) and 61 (26.2) n(%)
same,risk reduction (rPFS) compared to ARDT arm,[6]; [8],58%
same,rPFS 75th percentile (95% CI),"[6]; DCO 2 Oct 2022, full analysis set, Kaplan-Meier","NE [11.96, NE]"
same,estimated rPFS probability (95% CI) at 6 months,[6]; [9],69.0%
same,rPFS: Number of events,[6]; [9],60 (25.8%) n (%)
